GI50 and TGI data for twelve molecules are collected here from PubChem BioAssay (NCI).

Where “and” joins values, the source holds several entries; their conditions need not be identical. Identical values can stand only once.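 1) Cells in 96-well plates. 2) Compound, 48 h, 5 concentrations. 3) Linear interpolation between surrounding doses. 4) Unreached endpoint = highest concentration. GI50 marks 50% less growth. TGI: concentration producing complete growth inhibition.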 Where only a bound is given, the exact number is not on record here.

Some test systems named below: HCT-116 colon; HOP-62 NSCLC; KM12 colon; LOX IMVI melanoma; PC-3 prostate; SK-OV-3 ovarian; TK-10 renal; DMS 114 small cell lung; LXFL 529 NSCLC.
Holding throughout (experiment): NCI anticancer screen, dose series, 48 h

Consider `CCOC(=O)Nc1c(C)nc2ccccn12`, for which the GI50 in the assay with HCT-116 colon, in the assay with HOP-62 NSCLC, with KM12 colon, in the assay with LOX IMVI melanoma, in the assay with PC-3 prostate and in the assay on SK-OV-3 ovarian was above 100 µM each time. Further, the GI50 in the assay with TK-10 renal was above 100 µM. The TGI with HCT-116 colon, with HOP-62 NSCLC, in the assay with KM12 colon, in the assay on LOX IMVI melanoma, in the assay with PC-3 prostate and in the assay on SK-OV-3 ovarian was above 100 µM each time. In addition, the TGI in the assay with TK-10 renal was above 100 µM.
As for `Cc1cccc(NC2=C(Cl)C(=O)c3nc(C)ccc3C2=O)c1`, the GI50 in the assay on HCT-116 colon is 0.44 µM; with HOP-62 NSCLC it was 0.529 µM; with KM12 colon it was 2.67 µM; with LOX IMVI melanoma, 0.351 µM; in the assay with PC-3 prostate, 1.29 µM; in the assay with SK-OV-3 ovarian, 11.7 µM. Also, the GI50 in the assay with TK-10 renal was 2.58 µM. In addition, the TGI in the assay on HCT-116 colon turned out to be 1.86 µM; in the assay on HOP-62 NSCLC it was 2.88 µM; in the assay on KM12 colon it was 10.8 µM; with LOX IMVI melanoma it was 1.46 µM; with PC-3 prostate, 4.8 µM; in the assay with SK-OV-3 ovarian, 24.2 µM. For the same molecule, the TGI in the assay with TK-10 renal turned out to be 4.17 µM.
Turning to `COc1ccc(-c2c(C#N)c(N3CCOCC3)nc3[nH]c(=S)[nH]c(=S)c23)cc1OC`, the GI50 with HCT-116 colon was 27.8 µM; with HOP-62 NSCLC it was 83.2 µM; with KM12 colon, 29.1 µM; in the assay on LOX IMVI melanoma, 16.7 µM; in the assay with PC-3 prostate, 40.3 µM; in the assay with SK-OV-3 ovarian it was 29.1 µM. In the assay with TK-10 renal, the GI50 was 34.5 µM. Besides, the TGI with HCT-116 colon is above 100 µM; in the assay on HOP-62 NSCLC, above 100 µM; in the assay on KM12 colon, above 100 µM; with LOX IMVI melanoma it was 60.9 µM; in the assay on PC-3 prostate, above 100 µM; with SK-OV-3 ovarian it was above 100 µM. Also, the TGI with TK-10 renal was above 100 µM.
Turning to `CCn1cc(-c2ccnc3[nH]c(-c4cccc(CN(C)C)c4)cc23)c(-c2ccc(NC(=O)N(C)C)cc2)n1`, the GI50 was 0.322 µM and 0.455 µM in the assay on HCT-116 colon; 0.385 µM and 1.28 µM in the assay with HOP-62 NSCLC; 1.06 µM and 1.62 µM in the assay on KM12 colon; 0.297 µM and 0.239 µM with LOX IMVI melanoma; 1.46 µM and 3.02 µM with PC-3 prostate; 2.16 µM and 3.83 µM with SK-OV-3 ovarian. Moreover, the GI50 with TK-10 renal was 6.77 µM and 1.67 µM. Further, the TGI is 17.7 µM and > 10 µM in the assay on HCT-116 colon; 14.4 µM and > 10 µM in the assay on HOP-62 NSCLC; 13.5 µM and > 10 µM in the assay with KM12 colon; 1.88 µM and 5.2 µM in the assay with LOX IMVI melanoma; 27 µM and > 10 µM with PC-3 prostate; 15.2 µM and > 10 µM with SK-OV-3 ovarian. Further, the TGI in the assay on TK-10 renal was 26 µM and > 10 µM.
Turning to `Cc1cc(C(=O)CSC(=S)SC(C)(C)C)ccc1Cl`, the TGI in the assay with HCT-116 colon was determined as 42.3 µM; in the assay on HOP-62 NSCLC it was 37.4 µM; with KM12 colon, 53.3 µM; in the assay on LOX IMVI melanoma it was 45 µM; in the assay with PC-3 prostate, 95.8 µM; in the assay on SK-OV-3 ovarian it was 94.5 µM. This molecule had a TGI with TK-10 renal of 60 µM.
Take `O=C(c1ccc([N+](=O)[O-])cc1[N+](=O)[O-])N(/N=C/C=C/c1ccccc1)c1nnc(-c2ccccc2)c(-c2ccccc2)n1`: the TGI is above 100 µM with DMS 114 small cell lung; above 100 µM with HOP-62 NSCLC; above 100 µM with KM12 colon; above 100 µM with LOX IMVI melanoma; above 100 µM in the assay with SK-OV-3 ovarian; 78 µM in the assay with TK-10 renal.
On to `NC(N)=Nc1nc2ccccc2o1`, for which the GI50 with HCT-116 colon, with HOP-62 NSCLC, in the assay on KM12 colon, in the assay with LOX IMVI melanoma, with PC-3 prostate and with SK-OV-3 ovarian was above 100 µM each time. Further, the GI50 in the assay with TK-10 renal is above 100 µM. Besides, the TGI in the assay with HCT-116 colon, in the assay on HOP-62 NSCLC, in the assay with KM12 colon, in the assay on LOX IMVI melanoma, in the assay on PC-3 prostate and in the assay with SK-OV-3 ovarian was above 100 µM in each case. The TGI with TK-10 renal was above 100 µM.
In the case of `CC(C)C1CN(C(=O)OCc2ccccc2)C2N1C(=O)C2(C)OCc1ccccc1` (stereo unspecified), the TGI in the assay on DMS 114 small cell lung, in the assay on HCT-116 colon, in the assay with HOP-62 NSCLC, in the assay on LOX IMVI melanoma, in the assay with LXFL 529 NSCLC and in the assay on TK-10 renal was above 100 µM each time.
`CC[C@]1(O)C[C@H]2CN(CCc3c([nH]c4ccccc34)C(C(=O)OC)(c3cc4c(cc3OC)N(C)[C@H]3[C@@](O)(C(=O)OC)[C@H](OC(C)=O)[C@]5(CC)[C@@H]6C[C@@H]6CN6CC[C@]43[C@@H]65)C2)C1` (stereo partly specified): the GI50 in the assay on HCT-116 colon was 0.00348 µM; with HOP-62 NSCLC, 0.00365 µM; in the assay on KM12 colon, 0.00296 µM; in the assay with LOX IMVI melanoma, 0.00273 µM; in the assay with PC-3 prostate, 0.00296 µM; in the assay on SK-OV-3 ovarian it was 0.00285 µM. In addition, in the assay on TK-10 renal, the GI50 is 0.0404 µM. The TGI in the assay with HCT-116 colon is 4.13 µM; with HOP-62 NSCLC it was above 9.22 µM; in the assay on KM12 colon it was 1.26 µM; in the assay with LOX IMVI melanoma, above 10.3 µM; in the assay on PC-3 prostate, above 11.8 µM; with SK-OV-3 ovarian, 0.0176 µM. Besides, in the assay with TK-10 renal, the TGI is 5.62 µM.
As for `C=C(C)C(C1C=C(CCC(C=O)=C(C)C)C(=O)O1)C1(OC)C=C(C)C(=O)O1` (stereo unspecified), the GI50 in the assay with HCT-116 colon is 49.5 µM; with HOP-62 NSCLC, above 100 µM; in the assay on KM12 colon it was above 100 µM; in the assay on LOX IMVI melanoma, 39.6 µM; with PC-3 prostate, above 100 µM; in the assay on SK-OV-3 ovarian, above 100 µM. In addition, in the assay on TK-10 renal, the GI50 was above 100 µM. In addition, the TGI in the assay on HCT-116 colon, in the assay on HOP-62 NSCLC, with KM12 colon, with LOX IMVI melanoma, with PC-3 prostate and with SK-OV-3 ovarian was above 100 µM in each case. The molecule also yielded a TGI in the assay with TK-10 renal above 100 µM.
Consider `COc1cc2c3c(n(C)c(=O)c2cc1OC)-c1cc2c(cc1C3=O)OCO2`, for which the TGI is above 100 µM in the assay on HCT-116 colon; above 55 µM in the assay on HOP-62 NSCLC; above 100 µM in the assay on KM12 colon; above 73 µM with LOX IMVI melanoma; above 100 µM in the assay with PC-3 prostate; above 100 µM with SK-OV-3 ovarian. In the assay with TK-10 renal, the TGI was above 100 µM.
Take `O=[N+]([O-])c1cccnc1N=Nc1c(O)[nH]c2ccccc12`: the TGI with HCT-116 colon came to 40 µM; with HOP-62 NSCLC it was 60.7 µM; with KM12 colon it was 25.6 µM; in the assay with LOX IMVI melanoma it was 25.7 µM; in the assay with PC-3 prostate, 63 µM; in the assay with SK-OV-3 ovarian it was 69.5 µM. The molecule further had a TGI in the assay on TK-10 renal of 40.8 µM.
